Test results as given in PubChem BioAssay (NCI).
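1) Cells in 96-well plates. 2) Compound, 48 h, 5 concentrations. 3) Linear interpolation between surrounding doses. 4) Unreached endpoint = highest concentration. GI50 marks 50% less growth. TGI denotes the concentration required for complete inhibition of growth.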

What was measured:
Test in all cases: inhibition of tumour cell growth, NCI panel, 48 h
CCRF-CEM leukemia = test system: CCRF-CEM leukemia
DMS 114 small cell lung = test system: DMS 114 small cell lung
OVCAR-4 ovarian = test system: OVCAR-4 ovarian
M14 melanoma = test system: M14 melanoma
SNB-19 CNS = test system: SNB-19 CNS
RXF 393 renal = test system: RXF 393 renal
NCI-H522 lung = test system: NCI-H522 lung
HOP-18 NSCLC = test system: HOP-18 NSCLC
DLD-1 colon = test system: DLD-1 colon
BT-549 breast = test system: BT-549 breast

| Structure (SMILES) | TGI (CCRF-CEM leukemia) [µM] | TGI (DMS 114 small cell lung) [µM] | TGI (OVCAR-4 ovarian) [µM] | TGI (M14 melanoma) [µM] | TGI (SNB-19 CNS) [µM] | TGI (RXF 393 renal) [µM] | TGI (NCI-H522 lung) [µM] | TGI (HOP-18 NSCLC) [µM] | GI50 (CCRF-CEM leukemia) [nM] | GI50 (DLD-1 colon) [µM] | TGI (DLD-1 colon) [µM] | GI50 (OVCAR-4 ovarian) [µM] | GI50 (M14 melanoma) [µM] | GI50 (SNB-19 CNS) [nM] | GI50 (RXF 393 renal) [µM] | GI50 (NCI-H522 lung) [nM] | GI50 (HOP-18 NSCLC) [µM] | TGI (BT-549 breast) [µM] | GI50 (BT-549 breast) [µM] |
| --- | --- | --- | --- | --- | --- | --- | --- | --- | --- | --- | --- | --- | --- | --- | --- | --- | --- | --- | --- |
| COc1ccc(-c2cc(=O)c3ccccc3o2)cc1N | > 100 | > 100 | > 100 | > 100 | > 100 | > 100 | 77.6 | > 100 | – | – | – | – | – | – | – | – | – | – | – |
| CC(C)[O-].CC(C)[O-].O=C1C=C([O-])C(=O)c2ccccc21.O=C1C=C([O-])C(=O)c2ccccc21.[Ti+4] | > 100 | – | > 100 | > 100 | > 100 | > 100 | > 100 | > 100 | > 73000 | > 100 | > 100 | > 100 | 17.8 | > 100000 | > 85.3 | 39900 | > 86.7 | – | – |
| O=C(CCc1nnc2s/c(=C\c3ccc(Cl)c(Cl)c3)c(=O)n12)Nc1ccc(Cl)c(Cl)c1 | 60.2 | > 100 | > 100 | > 100 | > 100 | 74 | 65.3 | > 100 | – | – | – | – | – | – | – | – | – | – | – |
| C/C=C1\C=C(OC)CN(CCc2c[nH]c3ccccc23)C1 | > 100 | > 100 | > 100 | 95.6 | > 100 | – | > 100 | – | – | – | > 100 | – | – | – | – | – | – | – | – |
| Cc1ccccc1NC(=O)c1c(C)oc2c1C(=O)c1ccccc1C2=O | 48.1 | 68 | > 100 | > 69.9 | > 100 | > 100 | 35.8 | – | – | – | > 68.6 | – | – | – | – | – | – | – | – |
| C=C1C(=O)OC2C1CCC(C)C1C=CC(=O)C12C (configuration not stated) | 8.54 | – | 16.6 | 4.85 | 46.1 | 4.39 | 2.39 | 20.7 | – | – | 4.19 | – | – | – | – | – | – | 3.46 | – |
| COc1cc2c(cc1OC)-c1ccc3cc4c(cc3c1N(CCCn1ccnc1)C2)OCO4 | 21.4 | – | 31.9 | 15.6 | 12.7 | 16.3 | 3.35 | – | 620 | – | – | 4.81 | 3.5 | 790 | 3.43 | 565 | – | 17.9 | 3.78 |
| COc1ccc(-c2cc(-c3ccc(Cl)cc3)nc(SCCCC(=O)NO)n2)cc1 | > 100 | – | 11.6 | 3.12 | > 27.1 | 1.52 | 3.26 | – | 222 | – | – | 0.849 | 0.786 | 2180 | 0.359 | 704 | – | 28.6 | 2.46 |
| O=c1cc(N2CCN(CCCCCOc3cc(O)c4c(=O)cc(-c5ccccc5)oc4c3)CC2)c2ccccc2o1 | > 100 | – | > 100 | > 100 | > 100 | > 100 | > 100 | – | 19300 | – | – | 62.7 | 53.2 | > 100000 | > 100 | > 100000 | – | > 100 | 57.9 |
| CCOC(=O)N1c2c(ccn2C)-c2ccn(C)c2N1C(=O)OCC | 13.8 | – | – | 30.8 | – | – | 25 | – | – | – | 29.5 | – | – | – | – | – | – | – | – |
